Measurements published in patent publication US10711000B2 (Fronthera U.S. Pharmaceuticals LLC, priority 2018, dated 2020).
Where two headings read alike, the source gives them in different places.

Key:
[1] = target: T1, Autotaxin (Homo sapiens, UniProt Q13822); experiment: LPA formation in pooled human plasma (ex vivo autotaxin inhibition); assay type: biochemical; details: 2 hours incubation
T1 construct: from tissue; host or cells: pooled human plasma
Procedure, shortened: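 Ex vivo: LPA 18:2 and 20:4 levels in compound-treated versus untreated pooled human plasma after 2 h incubation, measured by butanol extraction and negative-mode MRM LC/MS/MS against calibration standards. IC50 from non-linear fit of inhibition versus concentration.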

[2] = Pharmacokinetics after a single oral dose in SD rats; assay type: in vivo; details: Sprague-Dawley, rat, plasma, single oral dose in 0.5% methylcellulose; for half-life: read-out: T½ (converted)
Description: (§1) The pharmacokinetics and pharmacodynamics of test compounds after a single oral dose were investigated in SD rats, Beagle dog and Cynomolgus monkey. SD Rats (200-250 g) were purchased from Beijing Vital River Laboratory Animal Technology Co., Ltd. Male Beagle Dog, 6-9 kg, were purchased from Beijing Mashall. Male Cynomolgus monkeys, 3-5 kg, were purchased from Suzhou Xishan Zhongke Drugs Research and Development Co., Ltd. Following arrival, the animals were acclimated for 7 days in individual cages maintained at ambient temperature, 34 to 68% relative humidity, and 12-h light/dark cycles. Just prior to dose administration the rats were fasted overnight with free access to water. Animals were given 10 mL/kg of formulated compound in 0.5% methylcellulose (MC) by oral gavage, and the animals were fed four hours after dosing. The animals were manually restrained at the designated time points (pre-dose, 0.5, 1, 3, 6, 9, 12, and 24 h post-dose) to collect blood. Approximately 120 μL of blood was collected via orbital sinus into K2EDTA tubes. The blood samples were centrifuged at 5000 rpm for 10 min at 4° C. to obtain plasma samples.
To determine the compound concentration in the plasma samples, a 10× calibration standard of compound were prepared by serial dilution in DMSO: 20000, 10000, 5000, 2000, 1000, 500, 200, 100, 50, 20, and 10 ng/mL. 3 μL of calibration standard solution was added into 27.0 μL of blank plasma in 1.5-mL microcentrifuge tubes to generate 1× calibration standards. The 30.0 μL of standards or study plasma was mixed with 200 μL of acetonitrile (containing 5 ng/mL verapamil for internal control) in a 1.5-mL microcentrifuge tube. After vertexing for 1 minute and centrifuging at 10000 rpm for 10 min, 180 μL of supernatant was transferred into a 96-well plate and the compound concentration in the plasma was quantitated using LC/MS/MS together with standards. Briefly, 1 μL of the solutions were injected for LC-MS/MS analysis using an Agilent Zorbax C18 column (50×2.1 mm, 3.5 μm) with mobile phase A [5 mM NH4Ac (0.1% FA)] and phase B [Methanol (0.1% FA)]. Mass spectrometer parameters optimization for compound was performed by infusing standard diluted at 1 μg/mL in water/methanol (1/1, v/v) directly in the ionization source at a flow of 10 μL/min. Quantitative data were acquired in multiple reaction monitoring (MRM) positive APCI mode.

[3] = target: T2, Autotaxin (Rattus norvegicus, UniProt Q64610); experiment: Pharmacodynamics: LPA 18:2 inhibition in plasma of SD rats after oral dose; details: single oral dose, LPA18:2 inhibition vs plasma concentration of compound, read-out: In vivo rat IC50 (LPA 18:2) (converted)
T2 construct: from tissue; host or cells: SD rats in vivo; plasma sampled after a single oral dose
Description: as §1
Autotaxin is a secreted phosphodiesterase that converts lysophosphatidylcholine (LPC) into lysophosphatidic acid (LPA), and LPA 18:2 formation was used to evaluate the efficacy of autotaxin inhibitors. Therefore, the LPA 18:2 formation in response to drug administration was analyzed in each time point to assess the pharmacodynamics of test compounds. To determine the LPA18:2 concentration in study plasma, a 10× calibration standard of LPA 18:2 were prepared by serial dilution in butyl alcohol: 20000, 10000, 5000, 2000, 1000, 500, 200, 100, 50, 20, and 10 ng/mL. 3 μL of calibration standard solution was added into 27.0 μL of blank plasma in 1.5-mL microcentrifuge tubes to generate 1× calibration standards. The 30.0 μL of standards or study plasma was added into 1.5-mL microcentrifuge tubes. 200 μL of butyl alcohol (containing 25.0 ng/mL LPA17:0 for internal control) was added into each 1.5-mL microcentrifuge tube containing study plasma or calibration standards. After vortexing for 1 minute and centrifuging at 10000 rpm for 10 min, 180 μL of supernatant was transferred into a 96-well plate and the LPA18:2 concentration in the plasma was quantitated using LC/MS/MS together with standards. Briefly, 8 μL of the solutions were injected for LC-MS/MS analysis using an ACQUITY UPLC BEH C18 column (2.1×50 mm, 1.7 μm) with mobile phase A [20 mM NH4OAC in water (0.1% FA)] and phase B [5 mM NH4OAC in water/0.2% FA in ACN=5:95]. Mass spectrometer parameters optimization for LPA18:2 were performed by infusing standard diluted at 1 μg/mL in butyl Alcohol directly in the ionization source, at a flow of 10 μL/min. Deprotonated molecular ion at m/z 433.2 ([M−H]−) for LPA18:2, and abundant product ion at m/z 152.8 for LPA18:2 were obtained. Quantitative data were acquired in multiple reaction monitoring (MRM) negative electrospray ionization mode
The percentage of LPA18:2 inhibition was plotted against the corresponding concentration of compound and the IC50 was calculated through non-linear regression fitting.

[4] = LPA 18:2 by LC/MS/MS, read-out: LPA formation (18:2) (IC50)
[5] = LPA 20:4 by LC/MS/MS, read-out: LPA formation (20:4) (IC50)

CCc1nn2cc(C)c(N3CC4(CN(C(=O)[C@H]5CCOC5)C4)C3)cc2c1N(C)c1nc(-c2ccc(F)cc2)c(C#N)s1 [Example 97, (S)-2-((2-ethyl-6-methyl-5-(6-(tetrahydrofuran-3-carbonyl)-2,6-diazaspiro[3.3]heptan-2-yl)pyrazolo[1,5-a]pyridin-3-yl)(methyl)amino)-4-(4-fluorophenyl)thiazole-5-carbonitrile]
IC50 [1, 4]: ≤ 100 nM | IC50 [1, 5]: ≤ 100 nM | AUC [2]: 4690 ± 526 ng·h/mL | Cmax [2]: 336 ± 33.8 ng/mL | half-life [2]: 5.41 ± 1.7 h | IC50 [3]: 20 nM

CCn1nc2ncc(N3CC4(CN(C(=O)[C@H]5CCOC5)C4)C3)cc2c1N(C)c1nc(-c2ccc(F)cc2)c(C#N)s1 [Compound 117]
IC50 [1, 4]: ≤ 100 nM | IC50 [1, 5]: ≤ 100 nM | AUC [2]: 2210 ± 704 ng·h/mL | Cmax [2]: 584 ± 265 ng/mL | half-life [2]: 4.36 ± 1.3 h | IC50 [3]: 176 nM

CCc1nn2cc(F)c(N3CC4(CN(C(=O)C5(O)CCOCC5)C4)C3)cc2c1N(C)c1nc(-c2ccc(F)cc2)c(C#N)s1 [Example 112, 2-[[2-ethyl-6-fluoro-5-[2-(4-hydroxytetrahydropyran-4-carbonyl)-2,6-diazaspiro[3.3]heptan-6-yl]pyrazolo[1,5-a]pyridin-3-yl]-methyl-amino]-4-(4-fluorophenyl)thiazole-5-carbonitrile]
IC50 [1, 4]: ≤ 100 nM | IC50 [1, 5]: ≤ 100 nM | AUC [2]: 4750 ± 1430 ng·h/mL | Cmax [2]: 460 ± 178 ng/mL | half-life [2]: 3.77 ± 0.34 h | IC50 [3]: 97.5 nM

[2H]c1c(F)c(N2CCN(CC(=O)N3CC(O)C3)CC2)cc2c(N(C)c3nc(-c4ccc(F)cc4)c(C#N)s3)c(CC)nn12 [Example 103, 2-((2-ethyl-6-fluoro-5-(4-(2-(3-hydroxyazetidin-1-yl)-2-oxoethyl)piperazin-1-yl)pyrazolo[1,5-a]pyridin-3-yl-7-d)(methyl)amino)-4-(4-fluorophenyl)thiazole-5-carbonitrile]
IC50 [1, 4]: ≤ 100 nM | IC50 [1, 5]: ≤ 100 nM | AUC [2]: 1080 ± 313 ng·h/mL | Cmax [2]: 209 ± 58 ng/mL | half-life [2]: 4.32 ± 1.5 h | IC50 [3]: 48.6 nM

CN(c1nc(-c2ccc(F)cc2)c(C#N)s1)c1c(C2CC2)nn2cc(F)c(N3CC4(CN(C(=O)[C@H]5CCOC5)C4)C3)cc12 [Compound 114, (S)-2-((2-cyclopropyl-6-fluoro-5-(6-(tetrahydrofuran-3-carbonyl)-2,6-diazaspiro[3.3]heptan-2-yl)pyrazolo[1,5-a]pyridin-3-yl)(methyl)amino)-4-(4-fluorophenyl)thiazole-5-carbonitrile]
IC50 [1, 4]: ≤ 100 nM | IC50 [1, 5]: ≤ 100 nM | AUC [2]: 1460 ± 1120 ng·h/mL | Cmax [2]: 140 ± 102 ng/mL | half-life [2]: 3.72 ± 2.5 h | IC50 [3]: 16 nM

CN(c1nc(-c2ccc(F)cc2)c(C#N)s1)c1c(C2CC2)nn2cc(F)c(N3CCN(CC(=O)N4CC(O)C4)CC3)cc12 [Compound 113, 2-((2-cyclopropyl-6-fluoro-5-(4-(2-(3-hydroxyazetidin-1-yl)-2-oxoethyl)piperazin-1-yl)pyrazolo[1,5-a]pyridin-3-yl)(methyl)amino)-4-(4-fluorophenyl)thiazole-5-carbonitrile]
IC50 [1, 4]: ≤ 100 nM | IC50 [1, 5]: ≤ 100 nM | AUC [2]: 963 ± 501 ng·h/mL | Cmax [2]: 177 ± 99 ng/mL | half-life [2]: 2.92 ± 0.31 h | IC50 [3]: 14.8 nM

CCn1nc2nc(C)c(N3CC4(CN(C(=O)C5CCOCC5)C4)C3)cc2c1N(C)c1nc(-c2ccc(F)cc2)c(C#N)s1 [Compound 122, 2-((2-ethyl-6-methyl-5-(6-(tetrahydro-2H-pyran-4-carbonyl)-2,6-diazaspiro[3.3]heptan-2-yl)-2H-pyrazolo[3,4-b]pyridin-3-yl)(methyl)amino)-4-(4-fluorophenyl)thiazole-5-carbonitrile]
IC50 [1, 4]: ≤ 100 nM | IC50 [1, 5]: ≤ 100 nM | AUC [2]: 1090 ± 544 ng·h/mL | Cmax [2]: 403 ± 341 ng/mL | half-life [2]: 2.99 ± 3 h | IC50 [3]: 26.8 nM

CCc1nn2c(C)cc(N3CCC4(CN(C(=O)[C@H]5CCOC5)C4)C3)cc2c1N(C)c1nc(-c2ccc(F)cc2)c(C#N)s1 [Example 51, (S)-2-((2-ethyl-7-methyl-5-(2-(tetrahydrofuran-3-carbonyl)-2,6-diazaspiro[3.4]octan-6-yl)pyrazolo[1,5-a]pyridin-3-yl)(methyl)amino)-4-(4-fluorophenyl)thiazole-5-carbonitrile]
IC50 [1, 4]: ≤ 100 nM | IC50 [1, 5]: ≤ 100 nM

CCc1nn2c(C)cc(N3CC4(CN(C(=O)C(C)(C)O)C4)C3)cc2c1N(C)c1nc(-c2ccc(F)cc2)c(C#N)s1 [Example 30, 2-((2-ethyl-5-(6-(2-hydroxy-2-methylpropanoyl)-2,6-diazaspiro[3.3]heptan-2-yl)-7-methylpyrazolo[1,5-a]pyridin-3-yl)(methyl)amino)-4-(4-fluorophenyl)thiazole-5-carbonitrile]
IC50 [1, 4]: ≤ 100 nM | IC50 [1, 5]: ≤ 100 nM

CCc1nn2c(C)cc(N3CC4(CN(C(=O)C(O)CO)C4)C3)cc2c1N(C)c1nc(-c2ccc(F)cc2)c(C#N)s1 (stereo not drawn) [Example 60, 2-((5-(6-(2,3-dihydroxypropanoyl)-2,6-diazaspiro[3.3]heptan-2-yl)-2-ethyl-7-methylpyrazolo[1,5-a]pyridin-3-yl)(methyl)amino)-4-(4-fluorophenyl)thiazole-5-carbonitrile]
IC50 [1, 4]: ≤ 100 nM | IC50 [1, 5]: 100 to 500 nM

CCc1nn2c(C)cc(N3CC4(CN(C(=O)CO)C4)C3)cc2c1N(C)c1nc(-c2ccc(F)cc2)c(C#N)s1 [Example 29, 2-((2-ethyl-5-(6-(2-hydroxyacetyl)-2,6-diazaspiro[3.3]heptan-2-yl)-7-methylpyrazolo[1,5-a]pyridin-3-yl)(methyl)amino)-4-(4-fluorophenyl)thiazole-5-carbonitrile]
IC50 [1, 4]: 100 to 500 nM | IC50 [1, 5]: 500 to 1000 nM

CCc1nn2ccc(N3CCC4(CCN(C(=O)N5CC(O)C5)CC4)C3)cc2c1N(C)c1nc(-c2ccc(F)cc2)c(C#N)s1 [Example 17, 2-((2-ethyl-5-(8-(3-hydroxyazetidine-1-carbonyl)-2,8-diazaspiro[4.5]decan-2-yl)pyrazolo[1,5-a]pyridin-3-yl)(methyl)amino)-4-(4-fluorophenyl)thiazole-5-carbonitrile]
IC50 [1, 4]: ≤ 100 nM | IC50 [1, 5]: ≤ 100 nM

CCc1nn2cc(F)c(N3CC4(CN(C(=O)N5CC(O)C5)C4)C3)cc2c1N(C)c1nc(-c2ccc(F)cc2)c(C#N)s1 [Example 107, 2-((2-ethyl-6-fluoro-5-(6-(3-hydroxyazetidine-1-carbonyl)-2,6-diazaspiro[3.3]heptan-2-yl)pyrazolo[1,5-a]pyridin-3-yl)(methyl)amino)-4-(4-fluorophenyl)thiazole-5-carbonitrile]
IC50 [1, 4]: ≤ 100 nM | IC50 [1, 5]: ≤ 100 nM
